What follows are compounds tested on sterol biosynthesis (assay: Inhibition of squalene and cholesterol synthesis in the liver of mice (sterol biosynthesis)). Conditions: male NMRI mice, 3 mg/kg p.o., 14C-mevalonolactone, liver lipid fraction.
Format: in vivo
Procedure: Male NMRI mice are kept on normal rodent diet (NAFAG 3883) in metabolism cages. The light/dark cycle comprises 12 hours, from 06.00 to 18.00 and from 18.00 to 06.00. The animals are employed with a body weight of between 25 g and 40 g in groups of 8-10 animals in the experiments. Feed and drinking water are available to the animals ad libitum.
The substances are, according to their solubility, administered orally in aqueous tragacanth suspension (0.5%) or in Solutol HS15/saline solution (20:80) by gavage in a volume of 10 ml/kg of body weight or else injected subcutaneously in Solutol HS15/saline solution (20:80) or DMSO/saline solution (20:80). The corresponding control groups receive only the corresponding formulating agent without active substance. One or two hours after administration of the substance, the animals receive intraperitoneal injections of radiolabelled ^14C-mevalonolactone. One or two hours after the ^14C-mevalonolactone injection, or 24 hours after the administration of substance, the animals are sacrificed, the abdominal cavity is opened, and liver tissue is removed. Immediately after removal, the tissue is dried on the surface, weighed and homogenized in isopropanol. The further processing and extraction of the synthesized squalene and its secondary products takes place by a method of I. Duncan et al. (J. Chromatogr. 1979, 162), modified by H. Bischoff et al. (Atherosclerosis 1997, 135).
The extracted lipid fraction is taken up in 1 ml of isopropanol, transferred into scintillation vials, made up with 15 ml of Ultima Gold® scintillation fluid (Packard) and counted in a liquid scintillation counter (Beckmann Coulter LS 6500).
After calculation of the specific ^14C activity of the lipid fraction (dpm/g of liver tissue), the rate of synthesis of the radiolabelled ^14C squalene and of the ^14C secondary metabolites of the animals treated with the active substance is compared with the rate of synthesis of the radiolabelled ^14C squalene and of the ^14C secondary metabolites of the control animals treated only with formulating agent. A reduction in the rate of synthesis by ≧30% compared with the rate of synthesis for the control animals (=100%) is regarded as pharmacologically active if the statistical assessment by Student's t test results in a p value of <0.05.

COc1cccc(C2OC(CC(=O)N3CCSC3)c3nnc(C(C)C)n3-c3ccc(Cl)cc32)c1OC (stereo not shown) [Example 41, 8-Chloro-6-(2,3-dimethoxyphenyl)-1-isopropyl-4-[2-oxo-2-(1,3-thiazolidin-3-yl)ethyl]-4H,6H-[1,2,4]triazolo[4,3-a][4,1]benzoxazepine] and COc1cccc(C2OC(CC(=O)O)c3nnc(C(C)C)n3-c3ccc(Cl)cc32)c1OC (racemic) [Example 3, [8-Chloro-6-(2,3-dimethoxyphenyl)-1-isopropyl-4H,6H-[1,2,4]triazolo[4,3-a][4,1]benzoxazepin-4-yl]acetic acid] are the same in “Inhibition relative to the untreated control group” value: 81% for the first, 81% for the second.

Going from COc1cccc(C2OC(CC(=O)O)c3nnc(C(C)(C)CO)n3-c3ccc(Cl)cc32)c1OC (racemic) [Example 62-2, [8-Chloro-6-(2,3-dimethoxyphenyl)-1-(2-hydroxy-1,1-dimethylethyl)-4H,6H-[1,2,4]triazolo[4,3-a]-[4,1]benzoxazepin-4-yl]acetic acid] to COc1cccc(C2OC(CC(=O)N3CCN(C(C)=O)CC3)c3nnc(C(C)C)n3-c3ccc(Cl)cc32)c1OC (stereo not shown) [Example 50, 4-[2-(4-Acetylpiperazin-1-yl)-2-oxoethyl]-8-chloro-6-(2,3-dimethoxyphenyl)-1-isopropyl-4H,6H-[1,2,4]triazolo[4,3-a][4,1]benzoxazepine], the “Inhibition relative to the untreated control group” value falls from 77% to 75%.

— US20090215743A1, “Tricyclic benzazepine derivatives and their use” (Bayer HealthCare AG, priority 2004, published 2009)
